Patent US7196110B2, “N-substituted tricyclic 3-aminopyrazoles as inhibitors for the treatment of cell proliferative disorders” (Janssen Phamaceutica N.V., priority 2002, dated 2007)
Like-named read-outs stand apart in the source and are kept apart here.

Target: T1, PDGF-receptor beta enzyme comprising the tyrosine kinase domain (Homo sapiens, UniProt P09619)
T1 construct: from amino acid 545 to 1106 of GenBank Access NO: AAA36427
Assay: Inhibition of PDGF-receptor kinase activity (cell-free, PLC1 peptide, 33P Flashplate)
Format: biochemical
Conditions: for inhibition at 10 µM: read-out: Percent Inhibition @ 10 uM
Procedure, shortened: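 Recombinant kinase domain (aa 545–1106) phosphorylated a biotinylated PLC1 peptide with 5 μM ATP plus 33P-γ-ATP, in Tris pH 8, MgCl2, Na3VO4 and 1 mM DTT, for 60 min at 30 °C. Retained 33P was counted after washing. IC50 is the concentration halving activity versus no-inhibitor reactions.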

[1] = PDGF-R kinase activity, compound at 10 uM
[2] = PDGF-R kinase activity, read-out: IC50
[3] = read-out: IC50 (μM) on PDGF-R kinase activity

T1 sequence (P09619 545-1106): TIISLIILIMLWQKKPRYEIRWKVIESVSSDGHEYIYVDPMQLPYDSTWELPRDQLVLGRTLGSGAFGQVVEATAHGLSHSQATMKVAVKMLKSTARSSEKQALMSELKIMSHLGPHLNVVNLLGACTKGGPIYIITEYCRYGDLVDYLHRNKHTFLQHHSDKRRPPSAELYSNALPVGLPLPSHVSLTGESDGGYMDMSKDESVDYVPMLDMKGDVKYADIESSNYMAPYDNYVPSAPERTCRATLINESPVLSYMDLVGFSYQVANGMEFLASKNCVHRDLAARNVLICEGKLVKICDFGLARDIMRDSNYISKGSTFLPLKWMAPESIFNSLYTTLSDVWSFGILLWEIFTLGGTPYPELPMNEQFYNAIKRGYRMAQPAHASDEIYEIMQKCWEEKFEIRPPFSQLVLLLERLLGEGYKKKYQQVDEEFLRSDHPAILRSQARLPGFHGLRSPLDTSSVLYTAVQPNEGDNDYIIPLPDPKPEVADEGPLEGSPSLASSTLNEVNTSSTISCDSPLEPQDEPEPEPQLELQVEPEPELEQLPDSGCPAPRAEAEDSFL

Structure (SMILES)	inhibition at 10 µM [1] [%]	IC50 [2] [µM]	IC50 [3] [µM]	Percent Inhibition @ 10 uM (PDGF-R kinase activity, compound at 10 uM, 10 µM) [%]
COCCCOc1ccc2c(c1)Cc1c-2n[nH]c1Nc1cccnc1 [Compound 142, [6-(3-Methoxy-propoxy)-2,4-dihydro-indeno[1,2-c]pyrazol-3-yl]-pyridin-3-yl-amine]	82.5	0.453		
COc1ccc(OC)c(CNc2[nH]nc3c2Cc2cc(F)ccc2-3)c1 [Compound 307, (2,5-Dimethoxy-benzyl)-(6-fluoro-2,4-dihydro-indeno[1,2-c]pyrazol-3-yl)-amine]	59	3.4		
COc1cc2c(cc1OC)-c1c(c(Nc3cccc(F)c3)nn1C(=O)Oc1ccc(Cl)cc1)C2 [Compound 501, 3-(3-Fluoro-phenylamino)-6,7-dimethoxy-4H-indeno[1,2-c]pyrazole-1-carboxylic acid 4-chloro-phenyl ester]	90	0.096		
COc1cc2c(cc1OC)-c1n[nH]c(Nc3cc(F)ccc3F)c1C2 [Compound 55, (2,5-Difluoro-phenyl)-(6,7-dimethoxy-2,4-dihydro-indeno[1,2-c]pyrazol-3-yl)-amine]	76	0.636		
COc1cc2c(cc1OC)C(C)c1c-2n[nH]c1Nc1cc(F)ccc1F (stereo not drawn) [Compound 252, (2,5-Difluoro-phenyl)-(6,7-dimethoxy-4-methyl-2,4-dihydro-indeno[1,2-c]pyrazol-3-yl)-amine]	16			
COc1cc2c(cc1OC)-c1n[nH]c(Nc3cc(Cl)ccc3C)c1C2 [Compound 46, (5-Chloro-2-methyl-phenyl)-(6,7-dimethoxy-2,4-dihydro-indeno[1,2-c]pyrazol-3-yl)-amine]	51	14.2		
COc1ccc(OC)c(Nc2[nH]nc3c2Cc2cc(OC)c(OC)cc2-3)c1 [Compound 48, (6,7-Dimethoxy-2,4-dihydro-indeno[1,2-c]pyrazol-3-yl)-(2,5-dimethoxy-phenyl)-amine]	39			
COc1cc2c(cc1OCCCN1CCN(C)CC1)Cc1c-2n[nH]c1Nc1ccc(F)c(Cl)c1 [Compound 214, (3-Chloro-4-fluoro-phenyl)-{7-methoxy-6-[3-(4-methyl-piperazin-1-yl)-propoxy]-2,4-dihydro-indeno[1,2-c]pyrazol-3-yl}-amine]	46			
COc1cccc2c1Cc1c-2n[nH]c1Nc1cccc(C(F)(F)F)c1 [Compound 150, (5-Methoxy-2,4-dihydro-indeno[1,2-c]pyrazol-3-yl)-(3-trifluoromethyl-phenyl)-amine]	85	0.823		
COc1cc2c(cc1OC)-c1n[nH]c(N(c3cccc(F)c3)[C@@H]3O[C@H](C(=O)O)[C@@H](O)[C@H](O)[C@H]3O)c1C2 [Compound 591, 6-[(6,7-Dimethoxy-2,4-dihydro-indeno[1,2-c]pyrazol-3-yl)-(3-fluoro-phenyl)-amino]-3,4,5-trihydroxy-tetrahydro-pyran-2-carboxylic acid]	96		0.662	
COc1cc2c(cc1OC)-c1c(c(Nc3cccc(F)c3)nn1C(=O)C(C)C)C2 [Compound 431, 1-[3-(3-Fluoro-phenylamino)-6,7-dimethoxy-4H-indeno[1,2-c]pyrazol-1-yl]-2-methyl-propan-1-one]	84.5	0.444		
c1ccc(Nc2[nH]nc3c2Cc2cc(N4CCCCC4)ccc2-3)cc1 [Compound 65, Phenyl-(6-piperidin-1-yl-2,4-dihydro-indeno[1,2-c]pyrazol-3-yl)-amine]	76	1.54		
CN(C)CCCOc1cccc2c1Cc1c-2n[nH]c1Nc1cccnc1 [Compound 75, [5-(3-Dimethylamino-propoxy)-2,4-dihydro-indeno[1,2-c]pyrazol-3-yl]-pyridin-3-yl-amine]	115	0.575		
COc1cccc(Nc2[nH]nc3c2Cc2c(OCCCN(C)C)cccc2-3)c1 [Compound 74, [5-(3-Dimethylamino-propoxy)-2,4-dihydro-indeno[1,2-c]pyrazol-3-yl]-(3-methoxy-phenyl)-amine]	102	0.424		
COc1cc2c(cc1OC)-c1n[nH]c(N3CCc4cc(Br)ccc43)c1C2 [Compound 567, 3-(5-Bromo-2,3-dihydro-indol-1-yl)-6,7-dimethoxy-2,4-dihydro-indeno[1,2-c]pyrazole]	39.5			
COc1cc2c(cc1OCc1ccccc1)Cc1c-2n[nH]c1Nc1cccc(F)c1 [Compound 291, (6-Benzyloxy-7-methoxy-2,4-dihydro-indeno[1,2-c]pyrazol-3-yl)-(3-fluoro-phenyl)-amine]	95	0.205		
CCOc1cccc(Nc2[nH]nc3c2C(C)(C)c2cc(OC)c(OC)cc2-3)c1 [Compound 489, (6,7-Dimethoxy-4,4-dimethyl-2,4-dihydro-indeno[1,2-c]pyrazol-3-yl)-(3-ethoxy-phenyl)-amine]	25.5			

Structure (SMILES)	inhibition at 10 µM [1] [%]	IC50 [2] [µM]	IC50 [3] [µM]	Percent Inhibition @ 10 uM (PDGF-R kinase activity, compound at 10 uM, 10 µM) [%]
COc1cc2c(cc1OC)-c1c(c(Nc3cccc(F)c3)nn1C(=O)NCCOCCOCCO)C2 [Compound 544, 3-(3-Fluoro-phenylamino)-6,7-dimethoxy-4H-indeno[1,2-c]pyrazole-1-carboxylic acid {2-[2-(2-hydroxy-ethoxy)-ethoxy]-ethyl}-amide]	60			
Cc1ccccc1CNc1[nH]nc2c1Cc1c(OCCCO)cccc1-2 [Compound 445, 3-[3-(2-Methyl-benzylamino)-2,4-dihydro-indeno[1,2-c]pyrazol-5-yloxy]-propan-1-ol]	95	0.0253		
CCC1c2cc(OC)c(OC)cc2-c2n[nH]c(Nc3cccc(Br)c3)c21 (single isomer, unassigned) [Compound 570, *S-(3-Bromo-phenyl)-(6,7-dimethoxy-4-ethyl-2,4-dihydro-indeno[1,2-c]pyrazol-3-yl)-amine]			2.05	77.5
COc1ccccc1CNc1[nH]nc2c1Cc1cc(OC)c(OC)cc1-2 [Compound 224, (6,7-Dimethoxy-2,4-dihydro-indeno[1,2-c]pyrazol-3-yl)-(2-methoxy-benzyl)-amine]	24			
COc1cc2c(cc1OC)-c1n[nH]c(Nc3cc(C)cc(C)c3)c1C2 [Compound 206, (6,7-Dimethoxy-2,4-dihydro-indeno[1,2-c]pyrazol-3-yl)-(3,5-dimethyl-phenyl)-amine]	63	0.64		
CCC1c2cc(OC)c(OC)cc2-c2n[nH]c(Nc3cccc(Br)c3)c21 (single isomer, unassigned) [Compound 555, *R-(3-Bromo-phenyl)-(6,7-dimethoxy-4-ethyl-2,4-dihydro-indeno[1,2-c]pyrazol-3-yl)-amine]	97.5	0.0209		
CN(C)CCCOc1ccc2c(c1)Cc1c-2n[nH]c1Nc1ccc(OC(F)(F)F)cc1 [Compound 217, [6-(3-Dimethylamino-propoxy)-2,4-dihydro-indeno[1,2-c]pyrazol-3-yl]-(4-trifluoromethoxy-phenyl)-amine]	51	3.48		
COc1cc2c(cc1OC)-c1c(c(Nc3cccc(F)c3)nn1C(=O)NCCN1CCOCC1)C2 [Compound 521, 3-(3-Fluoro-phenylamino)-6,7-dimethoxy-4H-indeno[1,2-c]pyrazole-1-carboxylic acid (2-morpholin-4-yl-ethyl)-amide]	97	0.0559		
COc1cc2c(cc1OC)-c1n[nH]c(Nc3ncccc3C)c1C2 [Compound 587, (6,7-Dimethoxy-2,4-dihydro-indeno[1,2-c]pyrazol-3-yl)-(3-methyl-pyridin-2-yl)-amine]	86		1.7	
COc1cc2c(cc1OC)-c1n[nH]c(Nc3cccc(SC(F)(F)F)c3)c1C2 [Compound 211, (6,7-Dimethoxy-2,4-dihydro-indeno[1,2-c]pyrazol-3-yl)-(3-trifluoromethylsulfanyl-phenyl)-amine]	87	0.05		
COc1cc2c(cc1OC)-c1c(c(Nc3cccc(F)c3)nn1C(=O)c1ccccc1F)C2 [Compound 481, (2-Fluoro-phenyl)-[3-(3-fluoro-phenylamino)-6,7-dimethoxy-4H-indeno[1,2-c]pyrazol-1-yl]-methanone]	59	3.76		
CCC1c2cc(OC)c(OC)cc2-c2c1c(Nc1cccc(Br)c1)nn2C(=O)c1ccccc1 (stereo not drawn) [Compound 546, [3-(3-Bromo-phenylamino)-4-ethyl-6,7-dimethoxy-4H-indeno[1,2-c]pyrazol-1-yl]-phenyl-methanone]	72.5			
Fc1cccc(F)c1CNc1[nH]nc2c1Cc1c(OCCCN3CCOCC3)cccc1-2 [Compound 414, (2,6-Difluoro-benzyl)-[5-(3-morpholin-4-yl-propoxy)-2,4-dihydro-indeno[1,2-c]pyrazol-3-yl]-amine]	80.5	0.564		
COc1cc2c(cc1OC)-c1n[nH]c(NCc3ccc(C)c(Cl)c3)c1C2 [Compound 273, (3-Chloro-4-methyl-benzyl)-(6,7-dimethoxy-2,4-dihydro-indeno[1,2-c]pyrazol-3-yl)-amine]	77	1.58		
COc1cc2c(cc1OC)-c1n[nH]c(Nc3ccc(C(F)(F)F)cc3)c1C2 [Compound 25, (6,7-Dimethoxy-2,4-dihydro-indeno[1,2-c]pyrazol-3-yl)-(4-trifluoromethyl-phenyl)-amine]	62	4.77		
COc1cc2c(cc1O)-c1n[nH]c(Nc3cccc(F)c3)c1C2 [Compound 608, 3-(3-Fluoro-phenylamino)-6-methoxy-2,4-dihydro-indeno[1,2-c]pyrazol-7-ol]	106		0.026	
COc1ccc(Nc2[nH]nc3c2Cc2ccc(OC)cc2-3)c(OC)c1 [Compound 175, (2,4-Dimethoxy-phenyl)-(7-methoxy-2,4-dihydro-indeno[1,2-c]pyrazol-3-yl)-amine]	71	3.93		
